The text below walks through data of patent US20230146395A1, “Substituted Pyrimidines and Uses Thereof” (Verge Analytics, Inc., priority 2020, published 2023).

For assay [1], the target named is T1, Full length human recombinant PIKFYVE (Homo sapiens, UniProt Q9Y2I7).
T1 construct: Full length human recombinant PIKFYVE; purchased Carna Biosciences (Kobe, Japan); host or cells: baculovirus expression system
Briefly: Inhibition of PIKfyve (microfluidic electrophoresis kinase assay, PI3P/PS substrate). The class given is biochemical. The note with it: 12 concentrations. The procedure, abridged:
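GST-tagged full-length human PIKFYVE (baculovirus; 2 nM) with fluorescent PI3P/PS (1 μM PI3P) and […] in pH 7.5 HEPES with Mg2+/Mn2+, 1% DMSO, 3 h at room temperature. PI(3,5)P product/substrate ratio read by microfluidic electrophoresis; 12-point % inhibition versus no-enzyme and DMSO controls.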

The subject of assay [2] is HEK 293T transfected with plasmids containing TDP-43 Q331K mutation. As to the kind of experiment: HEK/TDP Survival assay (Cell-Titer-Glo, 48 hrs, maximal effect of rescue). The settings on record: Homo sapiens, HEK 293T with TDP-43 Q331K, (n) in brackets. The class given is cell-based. The procedure: HEK/TDP Survival assay: Immortalized human embryonic kidney 293T (HEK 293T) were transfected with plasmids containing TDP-43 Q331K mutation, resulting in an increase in cell death that is biologically relevant to ALS patients. Cell death is measured as reductions in the amount of ATP, an indicator of metabolically active cells, that is quantified by a luminescence Cell-Titer-Glo® (CTG) reagent. Compounds are evaluated in this model for changes in CTG compared to a no treatment group. Increased signal indicates improved survival (rescue) and decreased signal indicates decreased survival.
Cell rescue was measured in a 96-well format with eight different concentrations of the test compound over 48 hours (hrs) with 6 replicates. The Promega Cell-Titer-Glo® Luminescent Cell Viability Assay was used to quantify ATP, an indicator of metabolically active cells (see protocol: https://www.promega.com/-/media/files/resources/protocols/technical-manuals/101/celltiterglo-2-0-assay-protocol.pdf?la=en). The luminescence signal was detected using the PerkinElmer EnVision or Molecular Devices SpectraMax.
The effect of a compound at a given dose on cell viability was determined using a three step procedure. First, Hedge's g for the Cell Titer-Glo luminescence values using six untreated wells on every plate as a control was calculated. […] Finally, values from all compound-dose pairs were corrected for multiple hypothesis testing using the Empirical Bayes framework of Stephens, M. (False discovery rates: a new deal, Biostatistics, 18 [2], 2017, 275-294) yielding credible intervals for the measured effect and associated s values.
Briefly, this method computes a local false sign rate for each experiment. Analogous to the local false discovery rate of Efron, B. (Size, power and false discovery rates, Ann. Statist. 35 [4], 2007, 1351-1377) this value measures the confidence in the sign of each effect (rather than confidence in each effect being non-zero). The s values reported in the previous figures are the expected fraction of errors if estimating the sign of all effects with greater absolute local false sign rate, defined in analogy to the q value of Storey, JD (The positive false discovery rate: a Bayesian interpretation and the q-value, Ann. Statist. 31 [6] 2003, 2013-2035).
Drugs that yielded signed log s values greater than 3 were considered hits. This threshold was determined by a separate calibration experiment in which Cell Titer-Glo® was measured in blank plates consisting of untreated cells to assess the noise inherent in the assay. Data are presented as the maximal effect of rescue obtained from the dose-response curve.

T1 sequence (Q9Y2I7 whole entry): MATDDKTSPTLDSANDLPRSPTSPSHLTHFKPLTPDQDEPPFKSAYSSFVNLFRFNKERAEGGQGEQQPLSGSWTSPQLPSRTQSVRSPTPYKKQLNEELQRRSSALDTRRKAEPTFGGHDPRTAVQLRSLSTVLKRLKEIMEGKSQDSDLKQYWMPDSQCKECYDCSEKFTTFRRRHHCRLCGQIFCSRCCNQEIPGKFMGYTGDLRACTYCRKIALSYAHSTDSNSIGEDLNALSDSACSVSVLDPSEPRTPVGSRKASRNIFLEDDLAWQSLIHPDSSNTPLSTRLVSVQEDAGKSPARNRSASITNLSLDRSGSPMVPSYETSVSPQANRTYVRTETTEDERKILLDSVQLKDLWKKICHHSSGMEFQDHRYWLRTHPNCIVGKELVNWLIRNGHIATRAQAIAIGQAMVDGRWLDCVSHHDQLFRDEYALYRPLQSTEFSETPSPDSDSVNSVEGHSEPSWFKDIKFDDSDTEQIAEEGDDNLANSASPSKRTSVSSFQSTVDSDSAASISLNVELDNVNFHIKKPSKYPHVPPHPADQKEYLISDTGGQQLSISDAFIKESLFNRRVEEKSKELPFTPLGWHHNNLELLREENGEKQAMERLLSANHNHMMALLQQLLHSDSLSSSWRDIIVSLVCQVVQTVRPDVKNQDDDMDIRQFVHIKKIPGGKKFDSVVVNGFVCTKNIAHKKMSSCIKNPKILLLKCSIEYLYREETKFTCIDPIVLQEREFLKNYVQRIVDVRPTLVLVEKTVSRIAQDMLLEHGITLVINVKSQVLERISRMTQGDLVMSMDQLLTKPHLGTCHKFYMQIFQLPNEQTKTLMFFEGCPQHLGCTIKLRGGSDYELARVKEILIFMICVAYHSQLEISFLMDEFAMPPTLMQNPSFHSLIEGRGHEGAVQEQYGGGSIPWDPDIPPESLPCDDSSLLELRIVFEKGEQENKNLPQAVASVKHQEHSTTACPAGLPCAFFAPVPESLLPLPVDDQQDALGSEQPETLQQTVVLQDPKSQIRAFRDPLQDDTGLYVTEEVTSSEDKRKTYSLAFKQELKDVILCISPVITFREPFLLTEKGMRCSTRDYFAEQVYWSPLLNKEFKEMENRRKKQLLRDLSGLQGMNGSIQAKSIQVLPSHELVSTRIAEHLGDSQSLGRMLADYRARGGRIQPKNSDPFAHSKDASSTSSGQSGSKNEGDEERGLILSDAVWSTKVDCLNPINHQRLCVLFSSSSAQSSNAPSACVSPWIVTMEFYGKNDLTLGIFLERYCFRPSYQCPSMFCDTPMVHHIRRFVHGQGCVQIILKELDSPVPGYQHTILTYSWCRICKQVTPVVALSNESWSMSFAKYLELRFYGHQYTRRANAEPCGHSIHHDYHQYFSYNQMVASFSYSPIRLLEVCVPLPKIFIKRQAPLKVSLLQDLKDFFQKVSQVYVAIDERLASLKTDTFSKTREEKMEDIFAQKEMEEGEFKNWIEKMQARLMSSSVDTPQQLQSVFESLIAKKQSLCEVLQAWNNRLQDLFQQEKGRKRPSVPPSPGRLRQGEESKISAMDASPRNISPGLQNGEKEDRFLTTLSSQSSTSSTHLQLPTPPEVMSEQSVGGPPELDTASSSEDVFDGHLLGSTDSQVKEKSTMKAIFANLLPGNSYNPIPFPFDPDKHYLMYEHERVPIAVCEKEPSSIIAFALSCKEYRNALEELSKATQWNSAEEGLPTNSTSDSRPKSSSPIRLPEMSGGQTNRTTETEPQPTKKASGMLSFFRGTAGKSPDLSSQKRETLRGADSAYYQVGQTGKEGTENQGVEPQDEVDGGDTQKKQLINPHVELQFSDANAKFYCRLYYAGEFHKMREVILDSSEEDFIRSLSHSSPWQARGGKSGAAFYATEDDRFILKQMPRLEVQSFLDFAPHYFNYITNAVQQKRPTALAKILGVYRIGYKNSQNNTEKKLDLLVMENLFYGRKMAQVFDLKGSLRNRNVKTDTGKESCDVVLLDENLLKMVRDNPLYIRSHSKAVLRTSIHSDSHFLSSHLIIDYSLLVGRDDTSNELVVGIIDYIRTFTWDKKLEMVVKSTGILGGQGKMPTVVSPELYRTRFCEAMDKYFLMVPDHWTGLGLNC

By IC50 is commonly meant the concentration that inhibits the measured activity by half. In general, EC50 refers to the concentration at which the effect is half-maximal. A low value points to a more potent agent. For the molecule `[2H]C1([2H])OC([2H])([2H])C([2H])([2H])N(c2nc(-n3cc(-c4cccc(C)c4)cn3)nc3cc(-c4cccnc4)oc23)C1([2H])[2H]` [Compound 132, 4-morpholino (dg)-6-(pyridin-3-yl)-2-(4-(m-tolyl)-1H-pyrazol-1-yl)furo[3,2-d]pyrimidine], the IC50 in assay [1] is 39.9 nM. The molecule further returned a half-maximal effective concentration (EC50) in assay [2] of 15 nM.

Turning to `Cc1cccc(-c2cnn(-c3nc(N4CCOCC4)c4oc(-c5cc(C)n(CCN(C)C)n5)cc4n3)c2)c1` [Compound 146, N,N-dimethyl-2-(5-methyl-3-(4-morpholino-2-(4-(m-tolyl)-1H-pyrazol-1-yl)furo[3,2-d]pyrimidin-6-yl)-1H-pyrazol-1-yl)ethanamine], in assay [1], the concentration for half-maximal inhibition (IC50) was determined as 0.3 nM. In assay [2], this molecule gave an EC50 of 11 nM.

Turning to `Cc1cccc(-c2ccn(-c3nc(N4CCOCC4)c4oc(-c5ccncc5)cc4n3)n2)c1` [Compound 89, 4-morpholino-6-(pyridin-4-yl)-2-(3-(m-tolyl)-1H-pyrazol-1-yl)furo[3,2-d]pyrimidine], the half-inhibitory concentration (IC50) in assay [1] came out at 19 nM. This molecule also had an EC50 in assay [2] of 31.5 nM.

For the molecule `Cc1cccc(-c2cnn(-c3nc(N4CCOCC4)c4oc(C(=O)NC5CCOCC5)cc4n3)c2)c1` [Compound 125, 4-morpholino-N-(tetrahydro-2H-pyran-4-yl)-2-(4-(m-tolyl)-1H-pyrazol-1-yl)furo[3,2-d]pyrimidine-6-carboxamide], in assay [1], the half-maximal inhibitory concentration (IC50) was determined as 0.9 nM. The molecule also returned an EC50 in assay [2] of 26 nM.

For the molecule `C[C@H](NC(=O)c1cc2nc(-n3cc(-c4ccccc4)cn3)nc(N3CCOCC3)c2o1)C1CC1` [Compound 114, (S)-N-(1-cyclopropylethyl)-4-morpholino-2-(4-phenyl-1H-pyrazol-1-yl)furo[3,2-d]pyrimidine-6-carboxamide], the IC50 in assay [1] was found to be 9.6 nM. The same molecule showed a concentration for a half-maximal effect (EC50) in assay [2] of 61 nM.

As to `COCCNC(=O)c1cc2nc(-n3ccc(-c4cccc(C)c4)n3)nc(N3CCOCC3)c2o1` [Compound 93, N-(2-methoxyethyl)-4-morpholino-2-(3-(m-tolyl)-1H-pyrazol-1-yl)furo[3,2-d]pyrimidine-6-carboxamide], the IC50 in assay [1] was determined as 47.3 nM. Further, the response in assay [2] was half-maximal at 60 nM (EC50).

Take `C=CC(=O)NCCn1nc(-c2cc3nc(-n4cc(-c5cccc(C)c5)cn4)nc(N4CCOCC4)c3o2)cc1C` [Compound 196, N-[2-[5-methyl-3-[4-morpholino-2-[4-(m-tolyl)pyrazol-1-yl]furo[3,2-d]pyrimidin-6-yl]pyrazol-1-yl]ethyl]prop-2-enamide]: the concentration for half-maximal inhibition (IC50) in assay [1] came to 0.9 nM.

Regarding `c1ccc(-c2nnc(Nc3nc(N4CCOCC4)c4oc(-c5ccncc5)cc4n3)o2)cc1` [Compound 47, 4-morpholino-N-(5-phenyl-1,3,4-oxadiazol-2-yl)-6-(4-pyridyl)furo[3,2-d]pyrimidin-2-amine, hydrogen chloride], the half-maximal inhibitory concentration (IC50) in assay [1] turned out to be 52 nM.

For `c1cc(-c2cc3nc(Nc4cc(-c5ccsc5)n[nH]4)nc(N4CCOCC4)c3o2)ccn1` [Compound 76, 4-morpholino-6-(pyridin-4-yl)-N-(5-(thiophen-3-yl)-1H-pyrazol-3-yl)furo[3,2-d]pyrimidin-2-amine, hydrogen chloride], the IC50 in assay [1] came out at 1.1 nM.

Consider `CCNC(=O)c1cc2nc(-n3cc(-c4ccccc4)cn3)nc(N3CCOCC3)c2o1` [Compound 154, N-ethyl-4-morpholino-2-(4-phenylpyrazol-1-yl)furo[3,2-d]pyrimidine-6-carboxamide], for which the IC50 in assay [1] was found to be 77.3 nM.

In the case of `Cn1ccc(-c2cc3nc(-n4cc(Br)cn4)nc(N4CCOCC4)c3o2)n1` [Compound 194, 2-(4-bromopyrazol-1-yl)-6-(1-methylpyrazol-3-yl)-4-morpholino-furo[3,2-d]pyrimidine], the IC50 in assay [1] amounted to 269 nM.

`O=C(NCC1CC1)c1cc2nc(-n3cc(-c4ccccc4)cn3)nc(N3CCOCC3)c2o1` [Compound 116, N-(cyclopropylmethy 1)-4-morpholino-2-(4-phenyl-1H-pyrazol-1-yl)furo[3,2-d]pyrimidine-6-carboxamide]: in assay [1], the half-maximal inhibitory concentration (IC50) was found to be 49.3 nM.
